From PubChem BioAssay (NCI)
“And” between values parts separate entries of the source, which are not always exact repeats. Identical values can stand only once.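 Grown in 96-well plates, cells were treated for 48 hours with each compound at five concentrations. Insufficient inhibition: endpoint recorded as highest concentration tested. GI50 = concentration required for 50% inhibition of growth. The concentration for full growth arrest is given as TGI.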

What was measured:
Assay in all cases: NCI tumour cell line growth inhibition, 48 h
HOP-92 NSCLC = tested on: HOP-92 NSCLC
HCC-2998 colon = tested on: HCC-2998 colon
UACC-257 melanoma = tested on: UACC-257 melanoma
HS 578T breast = tested on: HS 578T breast
SNB-75 CNS = tested on: SNB-75 CNS
SF-268 CNS = tested on: SF-268 CNS
M14 melanoma = tested on: M14 melanoma
KM12 colon = tested on: KM12 colon
K-562 leukemia = tested on: K-562 leukemia
T-47D breast = tested on: T-47D breast

Row | SMILES | GI50 (HOP-92 NSCLC) | TGI (HOP-92 NSCLC) [µM] | GI50 (HCC-2998 colon) | TGI (HCC-2998 colon) | GI50 (UACC-257 melanoma) [µM] | TGI (UACC-257 melanoma) [µM] | GI50 (HS 578T breast) | TGI (HS 578T breast) [µM] | GI50 (SNB-75 CNS) | TGI (SNB-75 CNS) | GI50 (SF-268 CNS) | TGI (SF-268 CNS) | GI50 (M14 melanoma) | TGI (M14 melanoma) [µM] | GI50 (KM12 colon) | TGI (KM12 colon) | GI50 (K-562 leukemia) | TGI (K-562 leukemia) [µM] | GI50 (T-47D breast) | TGI (T-47D breast) [µM]
1 | COc1ccc(CC(=O)c2ccc(O)cc2O)cc1 | 12.3 µM | 62.1 | > 100 µM | > 100 µM | > 100 | > 100 | > 100 µM | > 100 | > 100 µM | > 100 µM | 94.5 µM | > 100 µM | > 100 µM | > 100 | > 100 µM | > 100 µM | 40.3 µM | > 100 | 56.7 µM | > 100
2 | COc1ccc(C2=C(c3ccc(OC)c(OC)c3)C(=O)N3CCCC3C2)cc1 (configuration not stated) | 41.3 µM | > 100 | 53.6 µM | > 100 µM | 62.3 | > 100 | 6.71 µM | > 78 | 16.6 µM | > 72.9 µM | 9.44 µM | > 100 µM | 35.9 µM | > 100 | 15.7 µM | > 100 µM | 7.32 µM | > 100 | 42.3 µM | > 100
3 | Nc1ccccc1C#C/C=C\C#Cc1cccc(O)c1 | 11.9 µM | > 51.2 | 3.98 µM | 9.08 µM | 10.2 | 23.4 | 3.39 µM | 22.8 | 1.36 µM | 13.5 µM | 7.93 µM | 44.5 µM | 1.3 µM | 5.65 | 2.61 µM | 11.7 µM | 3.81 µM | 30.6 | 7.3 µM | > 60.8
4 | CC1=C(CCC(C)NCc2ccc(OCCCN3CCCCC3)cc2)C(C)(C)CCC1 (configuration not stated) | 1.26 µM | 2.72 | 0.232 µM | 0.612 µM | 2.2 | 4.03 | 1.61 µM | 3.79 | 1.39 µM | 2.72 µM | 1.49 µM | 3.08 µM | 0.214 µM | 0.468 | 1.7 µM | 3.36 µM | 0.227 µM | 0.509 | 1.63 µM | 3.65
5 | O=c1c(O)c(-c2ccc(O)c(O)c2)oc2cc(O)cc(O)c12 | 6.16 µM | > 74.8 | 16 µM | 51 µM and > 100 µM | 37.4 | > 100 | 4.12 µM | > 50.7 | 4.42 µM | 39.2 µM and > 100 µM | 10.2 µM | 75.5 µM and > 100 µM | 17.3 µM | > 100 | 9.4 µM | 59.3 µM and > 100 µM | 5.2 µM | > 100 | 23.8 µM | > 100
6 | CCC[CH2][Sn]1([CH2]CCC)[O]C2C(CO)OC(n3ccc(N)nc3=O)C2[O]1 (configuration not stated) | 0.361 µM | 1.98 | 1.66 µM | 3.2 µM | 1.28 | 2.61 | 1.29 µM | 4.14 | 1.05 µM | 2.28 µM | 1.08 µM | 2.47 µM | 1.55 µM | 3.09 | 1.68 µM | 3.13 µM | 0.297 µM | > 100 | 0.383 µM | 2.49
7 | CC1=C(C(=O)N(C)c2ccc(Cl)c(C(=O)OC(C)C)c2)SCCO1 |  | > 100 |  | > 100 µM |  | > 100 |  | > 100 |  | 90.8 µM |  | > 100 µM |  | > 100 |  | > 100 µM |  | > 100 |  | > 100
8 | COc1cccc(-c2cc3c4c(nc5ccccc53)C(=O)c3cccnc3-c4n2)c1 | 4.3 µM | 19.8 | 2.2 µM | 4.61 µM | 1.06 | 4.33 | 3.18 µM | 11.2 | 2.32 µM | 5.71 µM | 3.27 µM | 14.9 µM | 0.863 µM | 2.36 | 1.54 µM | 3.75 µM | 1.82 µM | > 100 | 2.26 µM | 5.99
9 | COc1ccccc1CNCCCN1C(=O)c2ccc3c4c(ccc(c24)C1=O)C(=O)N(CCCN)C3=O | 2.4 µM | 5.65 | 1.8 µM | 3.58 µM | 0.74 | 2.27 | 1.96 µM | 6.95 | 1.36 µM | 2.72 µM | 1.22 µM | 3.94 µM | 0.833 µM | 2.34 | 1.69 µM | 3.25 µM | 0.751 µM | 3.35 | 1.22 µM | 3.31
10 | COc1ccc(/C=C(\C(=O)NCc2cccnc2)S(=O)(=O)c2ccccc2)cc1OC | 2.59 µM | 7.33 | 3.91 µM | 15.1 µM | 3.03 | 13.9 | 3.41 µM | 26.3 | 2.08 µM | 7.84 µM | 3.32 µM | 15.9 µM | 2.48 µM | 8.59 | 2.81 µM | 8.61 µM | 3.33 µM | > 100 | 2.59 µM | 10.8
11 | N#CSCc1ccc(Cl)c(CSC#N)c1 | 0.25 µM | 6.51 | 6.61 µM | 34.5 µM | 15 | 50.2 | 3.16 µM | 97.9 | 0.601 µM | 59.9 µM | 0.298 µM | 37.4 µM | 0.0759 µM | 14.8 | 0.545 µM | > 41.9 µM | 0.0576 µM | > 45.5 | 15.7 µM | 51.8
12 | CC[C@H](CO)Nc1nc(NCc2ccccc2)c2ncn(C(C)C)c2n1 | 28.1 µM | > 90.7 | 24.7 µM | > 75.2 µM |  | 98.7 | 20.8 µM | 68.2 |  | 30.6 µM |  | > 75.1 µM | 31.6 µM | > 100 | 10.6 µM | 60.2 µM | 40.3 µM | > 100 | 21.7 µM | > 84.2
13 | OCCn1cnc2c(SCc3ccccc3)ncnc21 |  | > 100 |  | > 100 µM |  | > 100 |  | > 100 |  | > 100 µM |  | > 100 µM |  | > 100 |  | > 100 µM |  | > 100 |  | > 100
14 | O1[As]2O[As]3O[As]1O[As](O2)O3 | 0.238 µM | 0.897 | 1.65 µM | 3.6 µM | 1.5 | 3.24 | 0.981 µM | > 42.5 | 0.389 µM | 3.34 µM | 0.456 µM | 1.86 µM | 1.46 µM | 4.21 | 3.31 µM | 13.9 µM | 0.317 µM | 2.99 | 0.474 µM | 12.6
15 | CC(C)(C)c1[nH]nc2c1C(c1cc3ccccc3[nH]c1=O)Nc1cc(C(=O)OCc3ccccc3)ccc1N2 (configuration not stated) | 1.35 µM | 8.34 | 4.08 µM | > 100 µM | 2.71 | > 100 | 7.45 µM | > 100 | 4.37 µM | > 100 µM | 4.82 µM | > 100 µM | 4.28 µM | > 100 | 2.83 µM | 7.34 µM | 4.18 µM | > 100 | 4.08 µM | > 100
16 | CN(C)CC1CCC2=C(C1=O)C(c1ccc(Cl)c(Cl)c1)C1=C(CCC(CN(C)C)C1=O)O2 (configuration not stated) | 11.3 µM | 25.5 | 0.0835 µM | 14.6 µM | 5.14 | 10.8 | 15.6 µM | 36.2 | 12.4 µM | 25.8 µM | 15.6 µM | 29.5 µM | 9.35 µM | 23.4 | 2.58 µM | 8.85 µM | 2.46 µM | 6.34 | 2.05 µM | 7.9
17 | NC(=O)c1ccc(-c2nc(-c3ccc4c(c3)OCO4)c(-c3ccccn3)[nH]2)cc1 | > 25 µM and 11.4 µM | > 84.6 | > 25 µM and 30.9 µM | > 100 µM | > 64.3 | > 100 | > 25 µM and 28.2 µM | > 100 | > 16.5 µM and 21.3 µM | > 90.8 µM | > 25 µM and 50.7 µM | > 100 µM | > 25 µM and 38.1 µM | > 100 | > 25 µM and 35.7 µM | > 100 µM | > 25 µM and 37.2 µM | > 100 | > 25 µM and 21.8 µM | > 100
18 | CC(C)CCNCC(O)Cn1c2ccccc2c2ccccc21 (configuration not stated) | 2.71 µM | 18.1 | 2.06 µM | 4.22 µM | 5 | 17.2 | 13.8 µM | 38.9 | 6.54 µM | 21 µM | 12.2 µM | 26.4 µM | 2.73 µM | 7.5 | 3.91 µM | 14.4 µM | 3.69 µM | 13.2 | 3.99 µM | 14.6
19 | COC(=N)c1c(N)[n+]([O-])c2ccc(F)cc2[n+]1[O-] | 78.8 µM | > 100 | > 100 µM | > 100 µM | > 100 | > 100 | > 100 µM | > 100 | 96.2 µM | > 100 µM | > 100 µM | > 100 µM | > 100 µM | > 100 | > 100 µM | > 100 µM | > 100 µM | > 100 | > 100 µM | > 100
